Reference: patent US6518293B2, “Anti-HIV imidazolone derivatives” (Hoffmann-La Roche Inc., priority 2000, dated 2003)

Assays:
HIV-1 RT = HIV-1 RT (Human immunodeficiency virus type 1 group M subtype B, UniProt P04585); test: HIV-1 Reverse Transcriptase Assay: Inhibitor IC50 Determination; assay type: biochemical; conditions: purified recombinant enzyme, poly(rA)/oligo(dT)16 template-primer
Protocol: Assay Method: HIV-1 Reverse Transcriptase Assay: Inhibitor IC50 Determination
HIV-1 RT assay was carried out in 96-well Millipore filtermat NOB50 plates using purified recombinant enzyme and a poly(rA)/oligo(dT)16 template-primer in a total volume of 50 μL. The assay constituents were 50 mM Tris/HCl, 50 mM NaCl, 1 mM EDTA, 6 mM MgCl2, 5 μM dTTP, 0.1 μCi [^3H] dTTP, 5 μg/ml poly (rA) pre annealed to 2.5 μg/ml oligo (dT)16 and a range of inhibitor concentrations in a final concentration of 10% DMSO. Reactions were initiated by adding 5 nM HIV-1 RT and after incubation at 37° C. for 30 min, they were stopped by the addition of 50 μl ice cold 20% TCA and allowed to precipitate at 4° C. for 30 min. The precipitates were collected by applying vacuum to the plate and sequentially washing with 2×200 μl of 10% TCA and 2×200 μl 70% ethanol. Finally the plates were dried and radioactivity counted in a Wallac Microbeta 1450 after the addition of 15 μl scintillation fluid per well. IC50's were calculated by plotting % inhibition versus log10 inhibitor concentrations.

[1] = system: HXB2-strain of HIV in MT4 cells; test: Antiviral assay: protection of HIV-infected MT4 cells from cell death (MTT); assay type: cell-based; conditions: Human immunodeficiency virus 1; MT4 cells infected with HXB2-strain of HIV, MTT viability
Protocol: Anti-HIV antiviral activity was assessed using an adaptation of the method of Pauwels et al. {Pauwels et al., 1988, J Virol Methods 20:309-321}. The method is based on the ability of compounds to protect HIV-infected T lymphoblastoid cells (MT4 cells) from cell-death mediated by the infection. The endpoint of the assay was calculated as the concentration of compound at which the cell viability of the culture was preserved by 50% (‘50% inhibitory concentration’, IC50). The cell viability of a culture was determined by the uptake of soluble, yellow 3-[4,5-dimethylthiazol-2-yl]-2,5-diphenyltetrazolium bromide (MTT) and its reduction to a purple insoluble formazan salt. After solubilization, spectrophotometric methods were employed to measure the amount of formazan product.
MT4 cells were prepared to be in logarithmic-phase growth and a total of 2×10^6 cells infected with the HXB2-strain of HIV at a multiplicity of 0.0001 infectious units of virus per cell in a total volume of between 200-500 microlitres. The cells were incubated with virus for one h at 37° C. before removal of virus. The cells are then washed in 0.01 M phosphate buffered saline, pH 7.2 before being resuspensed in culture medium for incubation in culture with serial dilutions of test compound. The culture medium used was RPMI 1640 without phenol red, supplemented with penicillin, streptomycin, L-glutamine and 10% fetal calf serum (GM10).
Test compounds were prepared as 2 mM solutions in dimethyl sulphoxide (DMSO). Four replicate, serial 2-fold dilutions in GM10 were then prepared and 50 microlitres amounts placed in 96-well plates over a final nanomolar concentration range of 625-1.22. Fifty microlitres GM10 and 3.5×10^4 infected cells were then added to each well. Control cultures containing no cells (blank), uninfected cells (100% viability; 4 replicates) and infected cells without compound (total virus-mediated cell death; 4 replicates) were also prepared. The cultures were then incubated at 37° C. in a humidified atmosphere of 5% CO2 in air for […].
A fresh solution of 5 mg/ml MTT was prepared in 0.01 M phosphate buffered saline, pH 7.2 and 20 microlitres added to each culture. The cultures were further incubated as before for 2 h. They were then mixed by pipetting up and down and 170 microlitres of Triton X-100 in acidified isopropanol (10% v/v Triton X-100 in 1:250 mixture of concentrated HCl in isopropanol). When the formazan deposit was fully solubilized by further mixing, the absorbance (OD) of the cultures was measured at 540 nm and 690 nm wavelength (690 nm readings were used as blanks for artefacts between wells). The percent protection for each treated culture was then calculated from the equation: [formula]
The IC50 was then obtained from graph plots of percent protection versus log10 drug concentration.

CC(C)n1c(Sc2cc(Cl)cc(Cl)c2)c(COCc2ccncc2)n(C)c1=O
IC50 (HIV-1 RT): 171 nM | IC50 [1]: 4 nM

CC(C)n1c(Sc2cc(Cl)cc(Cl)c2)c(CO)n(C)c1=O
IC50 (HIV-1 RT): 10000 nM

CCn1c(Cc2ccncc2)c(Sc2cc(Cl)cc(Cl)c2)n(C(C)C)c1=O
IC50 (HIV-1 RT): 649 nM

CC(C)n1c(Sc2cc(Cl)cc(Cl)c2)c(Cc2ccncc2)n(C)c1=O
IC50 (HIV-1 RT): 313 nM | IC50 [1]: 7 nM

CC(C)n1c(Sc2cc(Cl)cc(Cl)c2)c(COCc2cccnc2)n(C)c1=O
IC50 (HIV-1 RT): 115 nM | IC50 [1]: 5 nM

CC(C)n1c(Sc2cc(Cl)cc(Cl)c2)c(CCc2ccccc2)n(C)c1=O
IC50 (HIV-1 RT): 1160 nM

CC(C)n1c(Sc2ccccc2)c(CNCc2ccncc2)n(C)c1=O
IC50 (HIV-1 RT): 520 nM | IC50 [1]: 32 nM

CC(C)n1c(Oc2cc(Cl)cc(Cl)c2)c(CNCc2ccncc2)n(C)c1=O
IC50 (HIV-1 RT): 2400 nM | IC50 [1]: 108 nM

CC(C)n1c(Sc2ccccc2)c(CNCc2ccccc2)n(C)c1=O
IC50 (HIV-1 RT): 730 nM | IC50 [1]: 44 nM

Cn1c(COCc2ccccc2)c(Sc2cc(Cl)cc(Cl)c2)n(-c2ccccc2)c1=O
IC50 (HIV-1 RT): 10000 nM

CC(C)n1c(Sc2cc(Cl)cc(Cl)c2)c(/C=C/C#N)n(C)c1=O
IC50 (HIV-1 RT): 1920 nM

CCC(C)Sc1c(CNCc2ccncc2)n(C)c(=O)n1C(C)C (centres unmarked)
IC50 (HIV-1 RT): 1910 nM

CC(C)n1c(Sc2cc(Cl)cc(Cl)c2)c(COc2ccncc2)n(C)c1=O
IC50 (HIV-1 RT): 608 nM | IC50 [1]: 134 nM

COc1cccc(Sc2c(CNCc3ccncc3)n(C)c(=O)n2C(C)C)c1
IC50 (HIV-1 RT): 3340 nM

CC(C)n1c(Sc2cc(Cl)cc(Cl)c2)c(CNCc2ccncc2)n(C)c1=O
IC50 (HIV-1 RT): 90 nM | IC50 [1]: 7 nM
